Laboratory results reported in article PMC11017298, “Macrocyclic Oxindole Peptide Epoxyketones—A Comparative Study of Macrocyclic Inhibitors of the 20S Proteasome” (ACS Medicinal Chemistry Letters, 2024).
Read-outs that look alike come from different tables or passages of the source.

Assays:
Assay type in all cases: biochemical
[1] = molecular target: T1, human 20S proteasome T-L activity (Homo sapiens, UniProt Q99436); test: Fluorometric kinetic enzyme assay, 20S proteasome T-L activity (Ac-RLR-AMC)
T1 construct: human RBC proteasome was purchased from South Bay Bio; purchased South Bay Bio; host or cells: human red blood cells
Procedure: (§1) Fluorometric kinetic enzyme inhibition assays (for details, see Supporting Information) were performed for the ChT-L activity of the constitutive 20S proteasome to compare IC50 values for 5 with linear analogue 6, unoxidized macrocycles 15a and 15b, and macrocyclic C-terminal amide 12 (Table 1). Furthermore, inhibition of the 20S proteasomal ChT-L activity was compared with T-L and PGPH-L activities and with inhibition of serine protease chymotrypsin and cysteine proteases cathepsin B and m-calpain.
(§2) 6. In Vitro Kinetic Enzyme Assays
(§3) The inhibitory potency and selectivity of the final compounds were tested using in vitro fluorescent enzyme kinetics. The enzyme assays used the fluorogenic substrate Suc-Leu-Leu-Val-Tyr-AMC (Suc-LLVY-AMC) and either the human 20S proteasome or alternate proteases chymotrypsin, m-calpain and cathepsin B. For cathepsin B, Cbz-Arg-Arg-AMC was used as the fluorogenic substrate. Kinetic enzyme assays were carried out on a fluorescent 96-well plate reader and AMC-substrate hydrolysis was measured at 353 nm excitation and 442 nm emission. Wells with inhibitor and wells with control solution were run in tandem. Vi and v0 were calculated from the slope of the measured relative fluorescent units (RFUs) graphed against time for inhibitor and control wells, respectively. Values for vi /v0 were plotted as a function of inhibitor concentration with GraphPad Prism and IC50 values were calculated from a nonlinear regression analysis of the data ([Inhibitor] vs. response, three parameters). […]
Human 20S Proteasome T-L Activity: A well was loaded with 69 µL of buffer (50 mM Tris, 1 mM EDTA, 100 mM NaCl, pH 7.5), 2 µL of fluorogenic substrate (Ac-RLR-AMC, 59 mM in DMSO), 2 µL of human 20S proteasome (2.6 µM in H2O) and either 2 µL of inhibitor (at varying concentrations in DMSO) or 2 µL of DMSO (control). […]

[2] = molecular target: T2, human 20S proteasome ChT-L activity (Homo sapiens, UniProt P28074); test: Fluorometric kinetic enzyme assay, 20S proteasome ChT-L activity (Suc-LLVY-AMC); details: for IC50: constitutive human 20S proteasome, Suc-LLVY-AMC, 37 C, 10 min
T2 construct: human RBC proteasome was purchased from South Bay Bio; purchased South Bay Bio; host or cells: human red blood cells
Procedure: as §1, §2
The inhibitory potency and selectivity of the final compounds were tested using in vitro fluorescent enzyme kinetics. The enzyme assays used the fluorogenic substrate Suc-Leu-Leu-Val-Tyr-AMC (Suc-LLVY-AMC) and either the human 20S proteasome or alternate proteases chymotrypsin, m-calpain and cathepsin B. For cathepsin B, Cbz-Arg-Arg-AMC was used as the fluorogenic substrate. Kinetic enzyme assays were carried out on a fluorescent 96-well plate reader and AMC-substrate hydrolysis was measured at 353 nm excitation and 442 nm emission. Wells with inhibitor and wells with control solution were run in tandem. Vi and v0 were calculated from the slope of the measured relative fluorescent units (RFUs) graphed against time for inhibitor and control wells, respectively. Values for vi /v0 were plotted as a function of inhibitor concentration with GraphPad Prism and IC50 values were calculated from a nonlinear regression analysis of the data ([Inhibitor] vs. response, three parameters).
Human 20S Proteasome ChT-L Activity: A well was loaded with 86 µL of buffer (20 mM HEPES, 0.5 mM EDTA, 0.037% SDS, pH 7.8), 2 µL of fluorogenic substrate (Suc-LLVY-AMC, 5 mM in DMSO), 20 µL of human 20S proteasome (0.34 µM in H2O) and either 2 µL of inhibitor (at varying concentrations in DMSO) or 2 µL of DMSO (control). The fluorescent signal of the cleaved AMC chromophore was measured in RFUs at 37 °C over a span of 10 minutes with measurements taken every 20 seconds. […]

chymotrypsin = molecular target: T3, chymotrypsin (Bos taurus, UniProt P00766); test: Fluorometric kinetic enzyme assay, chymotrypsin (Suc-LLVY-AMC)
T3 construct: chymotrypsin was purchased from Sigma Aldrich; purchased Sigma Aldrich; host or cells: bovine pancreas

[3] = molecular target: T4, cathepsin B enzyme from human liver (Homo sapiens, UniProt P07858); test: Fluorometric kinetic enzyme assay, cathepsin B (Cbz-Arg-Arg-AMC)
T4 construct: from human liver; purchased Millipore; host or cells: human liver

m-calpain = molecular target: T5, m-calpain (Sus scrofa, UniProt P35750); test: Fluorometric kinetic enzyme assay, m-calpain (Suc-LLVY-AMC)
T5 construct: erythrocytes calpain-1 were purchased from Millipore; purchased Millipore; host or cells: porcine erythrocytes
T5 sequence (P35750 1-714): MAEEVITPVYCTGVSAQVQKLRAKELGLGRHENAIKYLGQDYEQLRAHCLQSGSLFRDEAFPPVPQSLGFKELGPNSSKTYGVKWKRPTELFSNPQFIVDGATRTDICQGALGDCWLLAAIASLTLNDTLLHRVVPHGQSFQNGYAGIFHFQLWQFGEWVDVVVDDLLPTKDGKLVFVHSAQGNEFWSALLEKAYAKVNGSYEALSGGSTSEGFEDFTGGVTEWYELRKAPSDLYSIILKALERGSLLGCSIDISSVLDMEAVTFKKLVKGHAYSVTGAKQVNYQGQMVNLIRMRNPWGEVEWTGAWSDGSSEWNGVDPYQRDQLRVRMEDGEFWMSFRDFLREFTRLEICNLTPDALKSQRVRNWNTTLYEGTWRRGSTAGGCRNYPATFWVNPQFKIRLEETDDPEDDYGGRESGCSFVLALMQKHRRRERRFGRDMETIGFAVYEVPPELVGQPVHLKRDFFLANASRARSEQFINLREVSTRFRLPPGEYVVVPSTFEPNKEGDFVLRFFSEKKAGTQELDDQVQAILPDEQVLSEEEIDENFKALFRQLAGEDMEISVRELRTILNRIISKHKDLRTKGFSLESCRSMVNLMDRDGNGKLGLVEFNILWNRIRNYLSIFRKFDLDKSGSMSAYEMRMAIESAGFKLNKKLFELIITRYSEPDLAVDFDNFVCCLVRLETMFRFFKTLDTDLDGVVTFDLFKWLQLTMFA
T5 sequence (P04574 1-266 partner): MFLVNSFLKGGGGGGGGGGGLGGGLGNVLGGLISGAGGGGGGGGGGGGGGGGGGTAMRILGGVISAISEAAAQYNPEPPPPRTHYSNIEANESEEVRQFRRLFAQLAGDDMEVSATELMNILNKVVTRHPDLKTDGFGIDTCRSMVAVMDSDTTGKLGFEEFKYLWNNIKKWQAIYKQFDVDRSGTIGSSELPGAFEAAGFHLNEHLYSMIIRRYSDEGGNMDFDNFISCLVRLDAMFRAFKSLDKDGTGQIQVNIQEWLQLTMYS

[4] = molecular target: T6, human 20S proteasome PGPH-L activity (Homo sapiens, UniProt P28072); test: Fluorometric kinetic enzyme assay, 20S proteasome PGPH-L activity (Cbz-LLE-AMC)
T6 construct: human RBC proteasome was purchased from South Bay Bio; purchased South Bay Bio; host or cells: human red blood cells
Procedure: as §1, §2, §3

[5] = human 20S proteasome, Ac-RLR-AMC, N.I. = no inhibition at 130 μM, read-out: IC50 20S Proteasome T-L Activity
[6] = Suc-LLVY-AMC, N.I. = no inhibition at 130 μM, read-out: IC50 Chymotrypsin
[7] = human liver enzyme, Cbz-Arg-Arg-AMC, pH 6.0, N.I. = no inhibition at 130 μM, read-out: IC50 Cathepsin B
[8] = Suc-LLVY-AMC, N.I. = no inhibition at 130 μM, read-out: IC50 m-Calpain
[9] = human 20S proteasome, Cbz-LLE-AMC, N.I. = no inhibition at 130 μM, read-out: IC50 20S Proteasome PGPH-L Activity

SMILES | IC50 [1, 5] | IC50 [2] | IC50 (chymotrypsin; [6]) | IC50 [3, 7] | IC50 (m-calpain; [8]) | IC50 [4, 9] | inhibition of T-L activity, in words [1] | inhibition of chymotrypsin, in words (chymotrypsin) | inhibition of cathepsin B, in words [3] | inhibition of m-calpain, in words (m-calpain) | inhibition of PGPH-L activity, in words [4] | IC50 [1] | fold lower potency (ChT-L) than macrocycle 5 ([2]; linear analogue versus macrocyclic 5) | IC50 (chymotrypsin) | IC50 [3] | IC50 (m-calpain) | IC50 [4] | inhibitory potency for the proteasome, in words ([2]; comparison among tested inhibitors)
CC(=O)N[C@H]1Cc2ccc([N+](=O)[O-])c(c2)Oc2ccc(cc2)C[C@@H](C(=O)N[C@@H](CC(C)C)C(=O)[C@@]2(C)CO2)NC(=O)[C@H](CC(C)C)NC1=O [15a] | > 130 µM | 0.55 ± 0.09 µM | > 130 µM | > 130 µM | > 130 µM | > 130 µM |  |  |  |  |  |  |  |  |  |  |  | 
CC(=O)N[C@H]1Cc2ccc([N+](=O)[O-])c(c2)Oc2ccc(cc2)CC[C@@H](C(=O)N[C@@H](CC(C)C)C(=O)[C@@]2(C)CO2)NC(=O)[C@H](CC(C)C)NC1=O [15b] | > 130 µM | 2.9 ± 0.42 µM | > 130 µM | > 130 µM | > 130 µM | > 130 µM |  |  |  |  |  |  |  |  |  |  |  | 
CC(C)C[C@H](NC(=O)[C@H](CCc1ccccc1)NC(=O)CN1CCOCC1)C(=O)N[C@@H](Cc1ccccc1)C(=O)N[C@@H](CC(C)C)C(=O)[C@@]1(C)CO1 [carfilzomib, reference compound] |  |  | > 130 µM | > 130 µM | > 130 µM |  |  |  |  |  |  |  |  |  |  |  |  | 
CC(=O)N[C@H]1Cc2ccc([N+](=O)[O-])c(c2)Oc2ccc3c(c2)C(C[C@@H](C(=O)N[C@@H](CC(C)C)C(=O)[C@@]2(C)CO2)NC(=O)[C@H](CC(C)C)NC1=O)C(=O)N3 (stereo partly drawn) [compound 5] | > 130 µM | 0.19 ± 0.02 µM | > 130 µM | > 130 µM | > 130 µM | 52.5 ± 16.6 µM | does not significantly inhibit | not found to have any cross-reactivity | not found to have any cross-reactivity | not found to have any cross-reactivity | does not significantly inhibit |  |  |  |  |  |  | 
CC(=O)N[C@@H](Cc1ccc([N+](=O)[O-])c(F)c1)C(=O)N[C@@H](CC(C)C)C(=O)N[C@@H](CC1C(=O)Nc2ccc(O)cc21)C(=O)N[C@@H](CC(C)C)C(=O)[C@@]1(C)CO1 (stereo partly drawn) [compound 6] |  | 1 ± 0.1 µM |  |  |  |  |  |  |  |  |  | > 130 µM | 4 fold | > 130 µM | > 130 µM | > 130 µM | > 130 µM | 
CC(=O)N[C@H]1Cc2ccc([N+](=O)[O-])c(c2)Oc2ccc3c(c2)C(C[C@@H](C(=O)N[C@@H](CC(C)C)C(N)=O)NC(=O)[C@H](CC(C)C)NC1=O)C(=O)N3 (stereo partly drawn) [compound 12] | 46.1 ± 3.1 µM | 25 ± 1 µM | > 130 µM | > 130 µM | > 130 µM | > 130 µM |  |  |  |  |  |  |  |  |  |  |  | least potent inhibitor
CC(C)C[C@@H](C=O)NC(=O)[C@@H]1Cc2ccc(cc2)Oc2cc(ccc2[N+](=O)[O-])C[C@H](NC(=O)OCc2ccccc2)C(=O)N[C@@H](CC(C)C)C(=O)N1 [compound 16, reference compound] | > 130 µM | 0.24 ± 0.06 µM | > 130 µM | 3.1 ± 1 µM | 2 ± 0.3 µM | 7.51 ± 2.32 µM |  |  | inhibits | inhibits |  |  |  |  |  |  |  | 
